Several values for one entry are separate records, joined by “and”; a condition that tells them apart may be missing. Equal values may be shown once. Inconclusive results and toxic doses are left out. How the source made its calls: active means survival T/C of 150% or more; inactive means T/C below 125% in these data.
Tested on: P388 leukemia ip, CD2F1 mice, survival T/C
Assay: NCI In Vivo Anticancer Drug Screen. Data for tumor model P388 Leukemia (intraperitoneal) in CD2F1 (CDF1) mice
Settings: endpoint: median survival time, higher = longer survival
Summary of the method: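 Mice carrying the transplanted tumor received test compound or vehicle. Survival was recorded in each group, and the value is the treated-group measurement divided by that of the vehicle-treated control group.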

[1] = dose: 60.0 mg/kg/injection, schedule: Q01DX005 (ip), vehicle: saline with Tween-80
[2] = dose: 120.0 mg/kg/injection, schedule: Q01DX005 (ip), vehicle: saline with Tween-80
[3] = dose: 240.0 mg/kg/injection, schedule: Q01DX005 (ip), vehicle: saline with Tween-80
[4] = dose: 50.0 mg/kg/injection, schedule: Q01DX009 (ip), vehicle: suspension in saline
[5] = dose: 100.0 mg/kg/injection, schedule: Q01DX009 (ip), vehicle: suspension in saline
[6] = dose: 200.0 mg/kg/injection, schedule: Q01DX009 (ip), vehicle: suspension in saline
[7] = dose: 12.5 mg/kg/injection, schedule: Q01DX005 (ip), vehicle: Klucel (hydroxypropylcellulose) (HPC)
[8] = dose: 25.0 mg/kg/injection, schedule: Q01DX005 (ip), vehicle: Klucel (hydroxypropylcellulose) (HPC)
[9] = dose: 50.0 mg/kg/injection, schedule: Q01DX005 (ip), vehicle: Klucel (hydroxypropylcellulose) (HPC)
[10] = dose: 50.0 mg/kg/injection, schedule: Q01DX009 (ip), vehicle: saline
[11] = dose: 100.0 mg/kg/injection, schedule: Q01DX009 (ip), vehicle: saline
[12] = dose: 200.0 mg/kg/injection, schedule: Q01DX009 (ip), vehicle: saline
[13] = dose: 50.0 mg/kg/injection, schedule: Q01DX009 (ip), vehicle: saline with Tween-80
[14] = dose: 100.0 mg/kg/injection, schedule: Q04DX003 (ip), vehicle: saline with Tween-80
[15] = dose: 200.0 mg/kg/injection, schedule: Q04DX003 (ip), vehicle: saline with Tween-80
[16] = dose: 400.0 mg/kg/injection, schedule: Q04DX003 (ip), vehicle: saline with Tween-80
[17] = dose: 100.0 mg/kg/injection, schedule: Q01DX009 (ip), vehicle: saline with Tween-80
[18] = dose: 200.0 mg/kg/injection, schedule: Q01DX009 (ip), vehicle: saline with Tween-80
[19] = dose: 400.0 mg/kg/injection, schedule: Q01DX009 (ip), vehicle: saline with Tween-80
[20] = dose: 50.0 mg/kg/injection, schedule: Q01DX009 (ip), vehicle: Klucel (hydroxypropylcellulose) (HPC)
[21] = dose: 100.0 mg/kg/injection, schedule: Q01DX009 (ip), vehicle: Klucel (hydroxypropylcellulose) (HPC)

Measured: T/C

Cc1ncc(C(=O)O)n1C(C)c1ccccc1 (stereo not drawn)
inactive: [1] 108 % of control | [2] 103 % of control | [3] 110 % of control

O=c1[nH]nc(Sc2ccccc2)c2nncn12
inactive: dose: 50.0 mg/kg/injection, schedule: Q01DX005 (ip), vehicle: saline with Tween-80 100 % of control | dose: 100.0 mg/kg/injection, schedule: Q01DX005 (ip), vehicle: saline with Tween-80 92 % of control

O=C(CC1(O)C(=O)Nc2ccccc21)c1ccc([N+](=O)[O-])cc1 (stereo not drawn)
inactive: [1] 102 % of control | [2] 95 % of control | [3] 100 % of control

CC(C)(N)P(=O)(O)O
inactive: dose: 25.0 mg/kg/injection, schedule: Q01DX009 (ip), vehicle: suspension in saline 96 % of control | [4] 92 % of control | [5] 100 % of control | [6] 106 % of control

CCOP(=O)(O)C1CCCC(C)[N-]1.CCOP(=O)(O)C1CCCC(C)[N-]1.[Cu+2] (stereo not drawn)
inactive: dose: 12.5 mg/kg/injection, schedule: Q04DX003 (ip), vehicle: Klucel (hydroxypropylcellulose) (HPC) 101 % of control | dose: 25.0 mg/kg/injection, schedule: Q04DX003 (ip), vehicle: Klucel (hydroxypropylcellulose) (HPC) 112 % of control

COc1ccc(Cc2cc(N=NC(N)=O)c(C)cc2O)cc1
inactive: [7] 106 % of control | [8] 94 % of control | [9] 97 % of control

Cc1ccc(C(=O)CCN(C)C)c(C)c1
inactive: dose: 15.0 mg/kg/injection, schedule: Q01DX005 (ip), vehicle: saline 106 % of control | dose: 30.0 mg/kg/injection, schedule: Q01DX005 (ip), vehicle: saline 100 % of control | dose: 60.0 mg/kg/injection, schedule: Q01DX005 (ip), vehicle: saline 89 % of control and 97 % of control

Cc1cccc(/C=N/Nc2ccc3ccccc3n2)n1
inactive: dose: 6.25 mg/kg/injection, schedule: Q01DX005 (ip), vehicle: Klucel (hydroxypropylcellulose) (HPC) 102 % of control | [7] 95 % of control | [8] 96 % of control

CC1N=C(SCC(=O)c2ccc(Cl)cc2)N2C(C)N=C(SCC(=O)c3ccc(Cl)cc3)N12 (stereo not drawn)
inactive: [10] 98 % of control | [11] 90 % of control | [12] 90 % of control

CCCC(=O)OCC1OC(n2cnc3c(=S)nc[nH]c32)C(OC(=O)CCC)C1OC(=O)CCC (stereo not drawn)
inactive: dose: 6.25 mg/kg/injection, schedule: Q01DX009 (ip), vehicle: saline with Tween-80 116 % of control | dose: 12.5 mg/kg/injection, schedule: Q01DX009 (ip), vehicle: saline with Tween-80 112 % of control | dose: 25.0 mg/kg/injection, schedule: Q01DX009 (ip), vehicle: saline with Tween-80 112 % of control | [13] 116 % of control

COc1ccc(Oc2nc(=O)n3ccsc3n2)cc1
inactive: [14] 108 % of control | [15] 86 % of control | [16] 94 % of control

O=C1Nc2ccccc2C12OCCS2 (stereo not drawn)
inactive: [1] 91 % of control | [2] 98 % of control | [3] 92 % of control

CN(C)c1ccc(/C=C\c2cccc[n+]2C)cc1
inactive: dose: 0.39 mg/kg/injection, schedule: Q01DX009 (ip), vehicle: saline 99 % of control and 100 % of control | dose: 0.78 mg/kg/injection, schedule: Q01DX009 (ip), vehicle: saline 100 % of control and 106 % of control | dose: 1.56 mg/kg/injection, schedule: Q01DX009 (ip), vehicle: saline 100 % of control and 105 % of control | dose: 3.12 mg/kg/injection, schedule: Q01DX009 (ip), vehicle: saline 109 % of control and 114 % of control

O=C([O-])[O-].O=[N+]([O-])O.[Co+3].[NH2-].[NH2-].[NH2-].[NH2-]
inactive: [17] 122 % of control | [18] 113 % of control | [19] 100 % of control

Cn1c2c(c3cc(Cl)ccc31)-c1ncncc1CC2
inactive: [7] 97 % of control | [8] 97 % of control | [9] 101 % of control | dose: 100.0 mg/kg/injection, schedule: Q04DX002 (ip), vehicle: Klucel (hydroxypropylcellulose) (HPC) 92 % of control

COC(=O)c1ccc(SSc2ccc(C(=O)OC)cc2[N+](=O)[O-])c([N+](=O)[O-])c1
inactive: [17] 91 % of control | [14] 90 % of control | [18] 100 % of control | [15] 95 % of control | [19] 91 % of control | [16] 90 % of control

CC(C)N(C(=S)/N=C1/SCS(=O)(=O)N1Cc1ccccc1)C(C)C
inactive: dose: 50.0 mg/kg/injection, schedule: Q04DX003 (ip), vehicle: saline with Tween-80 97 % of control | [14] 95 % of control | [15] 98 % of control

O=C1NC(c2ccccc2Cl)Nc2ccccc21 (stereo not drawn)
inactive: [20] 94 % of control | [21] 92 % of control | dose: 200.0 mg/kg/injection, schedule: Q01DX009 (ip), vehicle: Klucel (hydroxypropylcellulose) (HPC) 95 % of control | dose: 400.0 mg/kg/injection, schedule: Q01DX009 (ip), vehicle: Klucel (hydroxypropylcellulose) (HPC) 90 % of control

O=[N+]([O-])c1ccccc1S(=O)(=O)N(CCCCCN(S(=O)(=O)c1ccccc1[N+](=O)[O-])S(=O)(=O)c1ccccc1[N+](=O)[O-])S(=O)(=O)c1ccccc1[N+](=O)[O-]
inactive: dose: 60.0 mg/kg/injection, schedule: Q01DX005 (ip), vehicle: Klucel (hydroxypropylcellulose) (HPC) 89 % of control | dose: 120.0 mg/kg/injection, schedule: Q01DX005 (ip), vehicle: Klucel (hydroxypropylcellulose) (HPC) 87 % of control | dose: 240.0 mg/kg/injection, schedule: Q01DX005 (ip), vehicle: Klucel (hydroxypropylcellulose) (HPC) 87 % of control

CC(S)C(N)C(=O)O (stereo not drawn)
inactive: [10] 100 % of control | [11] 95 % of control | dose: 100.0 mg/kg/injection, schedule: Q04DX002 (ip), vehicle: saline with Tween-80 105 % of control and 94 % of control | [12] 97 % of control | dose: 200.0 mg/kg/injection, schedule: Q04DX002 (ip), vehicle: saline with Tween-80 114 % of control and 90 % of control | dose: 400.0 mg/kg/injection, schedule: Q04DX002 (ip), vehicle: saline with Tween-80 114 % of control and 89 % of control

CN1C(=O)/C(=C2\SC(=O)N(CNc3ccc(Br)cc3)C2=O)c2ccccc21
inactive: dose: 60.0 mg/kg/injection, schedule: Q01DX005 (ip), vehicle: Klucel + Tween-80 88 % of control | dose: 240.0 mg/kg/injection, schedule: Q01DX005 (ip), vehicle: Klucel + Tween-80 89 % of control

CC(NC(=O)C(CO)NC(=O)OCc1ccccc1)C(=O)O (stereo not drawn)
inactive: [9] 118 % of control | dose: 100.0 mg/kg/injection, schedule: Q01DX005 (ip), vehicle: Klucel (hydroxypropylcellulose) (HPC) 97 % of control | dose: 200.0 mg/kg/injection, schedule: Q01DX005 (ip), vehicle: Klucel (hydroxypropylcellulose) (HPC) 108 % of control

COc1ccc(C2N(C)CCCN2C)c(OC)c1
inactive: dose: 6.25 mg/kg/injection, schedule: Q01DX009 (ip), vehicle: saline sonified 100 % of control | dose: 12.5 mg/kg/injection, schedule: Q01DX009 (ip), vehicle: saline sonified 105 % of control | dose: 25.0 mg/kg/injection, schedule: Q01DX009 (ip), vehicle: saline sonified 100 % of control

CC1=NN(C(=O)c2ccncc2)C(=O)C1N=Nc1ccc(Cl)cc1 (stereo not drawn)
inactive: [13] 104 % of control | [17] 99 % of control | [18] 105 % of control

COC(=O)C1c2cc3c(c(O)c2C(O)CC1(C)O)C(=O)c1c(O)cc2c(c1C3=O)OC1OC2(C)C(O)C(N(C)C)C1O (stereo not drawn)
inactive: dose: 25.0 mg/kg/injection, schedule: Q01DX010 (ip), vehicle: saline 100 % of control | dose: 50.0 mg/kg/injection, schedule: Q01DX010 (ip), vehicle: saline 90 % of control | dose: 100.0 mg/kg/injection, schedule: Q01DX010 (ip), vehicle: saline 100 % of control | dose: 200.0 mg/kg/injection, schedule: Q01DX010 (ip), vehicle: saline 100 % of control

S=C(Nc1ccc(Br)c(Cl)c1)SCc1ccc2c(c1)OCO2
inactive: dose: 25.0 mg/kg/injection, schedule: Q01DX009 (ip), vehicle: Klucel (hydroxypropylcellulose) (HPC) 121 % of control | [20] 107 % of control | [4] 105 % of control | [21] 123 % of control | [5] 104 % of control | [6] 116 % of control

CC(=O)Nc1nc(C)c([N+](=O)[O-])s1
inactive: [13] 105 % of control | [17] 93 % of control | [18] 100 % of control

From PubChem BioAssay AID330 (DTP/NCI, 2004)
